# Experimental data taken from paper PMC9063808, “Structural insights into the calcium dependence of Stig cyclases” (RSC Advances, 2019).
# Target: T1, FamC1 (Fischerella ambigua, UniProt A0A076N4W8, N137A)
# T1 construct: gene ambU4; recombinant; homodimer in crystal
# Assay: X-ray crystallography, […] A
# Settings: Ca1 site empty, Ca2 bound; substrate-binding pocket; ligand came from the crystallization solution, not added on purpose
# T1 sequence (A0A076N4W8 entry or part of it N137A): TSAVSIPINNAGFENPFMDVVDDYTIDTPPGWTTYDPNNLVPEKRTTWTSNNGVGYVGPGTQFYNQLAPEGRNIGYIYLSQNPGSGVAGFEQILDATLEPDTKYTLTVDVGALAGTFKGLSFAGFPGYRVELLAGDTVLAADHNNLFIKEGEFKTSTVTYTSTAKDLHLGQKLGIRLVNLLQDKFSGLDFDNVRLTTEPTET
smiles,measurement,value
N=C(N)NCCC[C@@H]1NC(=O)[C@H]2CCCN2C1=O [CI-4],"X-ray crystallography, 1.48 A",The N137A crystal was grown in the same crystallization condition and one molecule of CI-4
